This is an account of results in publication PMC10856758, “New Dual Inhibitors of Tyrosyl-DNA Phosphodiesterase 1 and 2 Based on Deoxycholic Acid: Design, Synthesis, Cytotoxicity, and Molecular Modeling” (Molecules, 2024).

Series [1] addresses T1, TDP1 (Homo sapiens, UniProt Q9NUW8). In words: TDP1 activity, real-time fluorescence oligonucleotide biosensor (FAM/BHQ1). In kind it is biochemical. The note with it: 1.5 nM TDP1, 50 nM biosensor. An excerpt: To detect TDP1 activity in real time, we used an oligonucleotide biosensor based on the ability of TDP1 to remove fluorophore quenchers from the 3’ end of DNA [29]. The hexadecamer oligonucleotide carried 5(6)-carboxyfluorescein (FAM) at the 5’ end as a fluorophore and Black Hole Quencher-1 (BHQ1) at the 3’ end as a fluorophore quencher. TDP1 inhibitors prevent the removal of fluorophore quenchers, resulting in a decrease in fluorescence intensity.
TDP1 activity was detected as described in [31]. We measured the fluorescence intensity after quencher cleavage via a fluorophore quencher–coupled DNA oligonucleotide […]. The reaction mixtures contained TDP1 buffer (50 mM Tris, HCl pH 8.0, 50 mM NaCl, and 7 mM β-mercaptoethanol), 50 nM biosensor, and different concentrations of inhibitors. The reaction was triggered by adding TDP1 to a final concentration of 1.5 nM. The fluorophore quencher–coupled DNA oligonucleotide was synthesized in the Laboratory of Nucleic Acid Chemistry at the Institute of Chemical Biology and Fundamental Medicine (Novosibirsk, Russia).
The reaction mixtures were incubated at room temperature in a 96-well plate, and fluorescence was measured using the POLARstar OPTIMA fluorimeter (BMG LABTECH, GmbH, Ortenberg, Germany) every 55 s during the linear phase (here, data from minute 0 to minute 8). […] Data calculation was carried out using the software MARS Data Analysis 2.0 (BMG LABTECH, Ortenberg, Germany).

Series [2] concerns the target T2, TDP2 (Homo sapiens, UniProt O95551).
T2 sequence (O95551 1-362): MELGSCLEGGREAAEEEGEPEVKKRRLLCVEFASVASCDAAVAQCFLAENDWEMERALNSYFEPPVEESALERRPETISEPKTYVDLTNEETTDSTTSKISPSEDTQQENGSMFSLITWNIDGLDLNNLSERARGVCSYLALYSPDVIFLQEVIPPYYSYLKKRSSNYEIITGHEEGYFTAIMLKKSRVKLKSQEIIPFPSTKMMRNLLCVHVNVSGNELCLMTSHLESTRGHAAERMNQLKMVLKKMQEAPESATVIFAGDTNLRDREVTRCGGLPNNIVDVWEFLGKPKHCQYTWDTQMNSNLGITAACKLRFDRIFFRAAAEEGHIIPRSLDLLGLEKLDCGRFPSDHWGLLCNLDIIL
In words: Gel-based TDP2 activity assay (removal of 5'-tyrosine, PAGE). In kind it is biochemical. The note with it: for remaining activity at 500 µM: read-out: TDP2, % (residual activity of TDP2); for IC50: 200 nM TDP2, 100 nM substrate, 15 min 37 °C. The procedure: We investigated the activity against the TDP2 enzyme of compounds 3d–f and 4a–e at 500 μM (Table 1). The basis for testing TDP 2 was its ability to remove a tyrosine residue from the 5’ end of an oligonucleotide substrate. The TDP2 reaction products were separated in a polyacrylamide gel (PAGE) with formamide denaturation.
TDP2 activity was detected as described in [42]. We separated the products of the reaction of cleavage of the tyrosine residue from the 5′-end of the 3e FAM-labeled oligonucleotide in a polyacrylamide gel under denaturing conditions. […] The reaction mixtures contained TDP1 buffer ([…] Tris-HCl pH 8.0, 40 mM NaCl, 1 mM DTT, 0.05 mg/mL BSA (Sigma-Aldrich, St. Luis, MO, USA)), 100 nM oligonucleotide substrate, and inhibitors. The reaction was triggered by adding TDP2 to a final concentration of 200 nM.
The reaction mixtures were incubated for 15 min at 37 °C. The reaction products were analyzed using Typhoon FLA 9500 phosphorimager (GE Healthcare, Boston, MA, USA). Each experiment was carried out in three independent replicates. The data were analyzed with QuantityOne 4.6.7 software.

The nature of a further series: in vitro. The note with it: human, HeLa CC50.
In series [3] the target is T1, TDP1. On the set-up: method as in PMID 33221302. The note with it: earlier DCA derivatives; cited from earlier work.
Series [4] addresses T2, TDP2. On the set-up: method as in PMID 35011303. The note with it: at ~1 mM concentration; cited from earlier work.
The test system of series [5] is HeLa cells. The experiment in a line: MTT assay, combination with topotecan or etoposide. In kind it is cell-based, human. The note with it: with 0.5 μM topotecan or 5 µM etoposide. The procedure:
Next, the ability of the selected compounds to enhance the cytotoxic effect of topotecan and etoposide on the HeLa cell line was studied. CC50 values (50% cytotoxic concentration) were also calculated for the test compounds in the presence of topotecan or etoposide at fixed concentrations. For evaluation, three independent MTT assays were performed as described above with test substances in combination with topotecan at a final concentration of 0.5 μM and etoposide at a final concentration of 5 μM per well.
Figure 2 The combined action of compounds 3d–e and 4d–e with 0.5 μM topotecan (Tpc, (A)) and 5 µM etoposide (Eto, (B)) on the survival of HeLa cells. The error bars show standard deviations.
(In general: Tetrazolium dyes change colour on reduction, which living cells bring about.)

Series [6] has as its system HeLa cells. The note with it: human, 72 h.
Procedure: (§1) Topotecan (TOP1 inhibitor) and etoposide (TOP2 inhibitor) were used to study the effect combined with DCA derivatives on the metabolic activity of cells. […] Topotecan (0.5 µM) and etoposide (5 µM) were used at a concentration with low toxicity (>70% of living cells), selected based on preliminary experiments.
(§2) The cells were seeded in 96-well plates in quadruplicates at 3 × 10^3 cells/well. The cells were grown in Dulbecco’s Modified Eagle—Medium (DMEM) (AppliChem, Darmstadt, Germany) with Antibiotic-Antimycotic (100 IU/mL penicillin, 0.1 μg/mL streptomycin, 0.25 µg/mL amphotericin) (1×) (Gibco, Grand Island, NE, USA) and 10% of fetal bovine serum (Gibco, Grand Island, NE, USA) in a 5% CO2 atmosphere at 37 °C. After the formation of a 50% monolayer, tested compounds were added to the medium, and the cell culture was monitored for 72 h at 37 °C. DCA derivatives were dissolved in 100% DMSO and topotecan/etoposide in water. Control cells were grown in the presence of the same volume of DMSO, those cells with the investigated compound. […] (MTT) solution (10 μL, 5 mg/mL) were added to each well and the cells were incubated for an additional 2 h. Then, the medium was removed from the wells, and 100 μL of iso-propanol was added to dissolve blue formazan crystals formed within live cells; the optical density was measured at test and reference wavelengths (570 nm and 620 nm, respectively) using CLARIOstar fluorimeter (BMG LABTECH, GmbH, Ortenberg, Germany). The experiments were repeated at least three times.
Series [7] can be described thus: MTT cytotoxicity/antiproliferative assay. The note with it: human, HeLa cells, HeLa CC50, 72 h of treatment, MTT assay.
Procedure: as §1, §2
The test system of series [8] is HeLa cells. In words: MTT cytotoxicity/antiproliferative assay. The note with it: low-toxicity concentration, preliminary experiments.
Procedure: as §1, §2

The term IC50 denotes the concentration that inhibits the measured activity by half. As usually defined, the melting point is the temperature, or range, at which the solid turns liquid.

Read-outs that look alike come from different tables or passages of the source.

T1 sequence (Q9NUW8 whole entry): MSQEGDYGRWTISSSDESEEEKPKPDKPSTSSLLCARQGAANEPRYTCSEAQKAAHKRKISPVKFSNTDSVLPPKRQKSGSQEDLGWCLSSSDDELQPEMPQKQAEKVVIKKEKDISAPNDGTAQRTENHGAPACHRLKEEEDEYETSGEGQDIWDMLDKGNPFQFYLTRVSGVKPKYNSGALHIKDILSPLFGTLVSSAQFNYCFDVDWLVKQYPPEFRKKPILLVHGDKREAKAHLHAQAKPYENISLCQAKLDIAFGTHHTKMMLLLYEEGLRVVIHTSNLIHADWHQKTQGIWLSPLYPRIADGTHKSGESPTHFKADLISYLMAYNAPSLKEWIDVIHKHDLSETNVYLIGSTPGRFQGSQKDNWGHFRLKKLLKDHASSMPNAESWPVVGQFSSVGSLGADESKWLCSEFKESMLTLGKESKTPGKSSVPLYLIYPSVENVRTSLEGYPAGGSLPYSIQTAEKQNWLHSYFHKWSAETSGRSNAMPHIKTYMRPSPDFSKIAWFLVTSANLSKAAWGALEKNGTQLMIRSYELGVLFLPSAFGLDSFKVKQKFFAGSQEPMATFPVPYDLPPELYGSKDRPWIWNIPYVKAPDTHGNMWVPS
Procedure for in vitro: as §1, §2

Regarding `CC(CCC(=O)O)C1CCC2C3CCC4CC(O)(CSc5ccncc5)CCC4(C)C3CC(O)C12C` (stereo not drawn) [3a, 3β,12α-Dihydroxy-3α-((pyrydin-4-ylthio)methyl)-5β-cholan-24-oic Acid], the melting point is 119.6 °C (dec.). At TDP1 [1], this compound showed an IC50 of 22 ± 2 µM. For the same compound, the remaining activity at 500 µM at TDP2 [2] (at 500 µM compound) was 92 ± 3%.

Turning to `CC(CCC(=O)O)C1CCC2C3CCC4CC(O)(CSc5nccn5C)CCC4(C)C3CC(O)C12C` (stereo not drawn) [3b, 3β,12α-Dihydroxy-3α-((1-methyl-1H-imidazol-2-ylthio)methyl)-5β-cholan-24-oic Acid], the melting point was 119.9 °C (dec.). The compound also displayed a concentration for half-maximal inhibition (IC50) against TDP1 [1] of 30 ± 7 µM. The remaining activity at 500 µM at TDP2 [2] (at 500 µM compound) was no less than 100%.

As to `CC(CCC(=O)O)C1CCC2C3CCC4CC(O)(CSc5nc[nH]n5)CCC4(C)C3CC(O)C12C` (stereo not drawn) [3c, 3β,12α-Dihydroxy-3α-((1H-1,2,4-triazol-5-ylthio)methyl)-5β-cholan-24-oic Acid], the melting point lay within 95.1 to 98.4 °C. Also, the IC50 on TDP1 [1] is 32 ± 4 µM. Further, the remaining activity at 500 µM on TDP2 [2] (at 500 µM compound) is no less than 100%.

As for `Cc1ccc2[nH]c(SCC3(O)CCC4(C)C(CCC5C4CC(O)C4(C)C(C(C)CCC(=O)O)CCC54)C3)nc2c1` (stereo not shown) [3d], the melting point is 188.9 °C (dec.). On TDP1 [1], the IC50 turned out to be 25 ± 4 µM. On TDP2 [2], the IC50 was found to be 250 ± 30 µM. Further, on TDP2 [2] (at 500 µM compound, 500 µM), the “TDP2, % (residual activity of TDP2)” value stood at 24 ± 5%. Also, the remaining activity at 500 µM on TDP2 [2] (at 500 µM compound) was roughly 25%. This compound returned a CC50 at 72 h in “in vitro” of 63 ± 6 µM.

For `CC(CCC(=O)O)C1CCC2C3CCC4CC(O)(CSc5nc6ccccc6s5)CCC4(C)C3CC(O)C12C` (stereo not shown) [3e], the melting point was 106.2 °C (dec.). On TDP1 [1], this compound gave an IC50 of 14 ± 2 µM. Besides, it took 76 ± 13 µM to reach half-maximal inhibition on TDP2 [2] (IC50). Besides, the remaining activity at 500 µM on TDP2 [2] (at 500 µM compound) is roughly 2%. The CC50 at 72 h in “in vitro” amounted to 75 ± 13 µM.

Take `COC1CCC2(C)C(CCC3C2CC(OC)C2(C)C(C(C)CCC(=O)Nc4ccc(Br)cc4)CCC32)C1` (stereo not drawn) [3α,12α-bis-methoxy deoxycholic para-bromoanilide]: on TDP1 [3], the 50% inhibitory concentration (IC50) was 0.27 µM and the “TDP1 IC50” value was “submicromolar range”.

Take `CC(CCC(=O)NCCc1c[nH]c2ccccc12)C1CCC2C3CCC4CC(OCc5ccccc5)CCC4(C)C3CC(O)C12C` (stereo not drawn) [3α-benzyloxy deoxycholic tryptamide]: at TDP1 [3], the 50% inhibitory concentration (IC50) was 0.24 µM and the “TDP1 IC50” value is given as “submicromolar range”. In addition, the TDP2 residual activity entry at TDP2 [4] was “less than 50%”.

Regarding `COC(=O)CCC(C)C1CCC2C3CCC4CC(O)(CSc5nc6cc(C)ccc6[nH]5)CCC4(C)C3CC(O)C12C` (stereo not shown) [4d], the melting point is 112.1 °C (dec.). Moreover, the IC50 at TDP1 [1] came to 0.94 ± 0.04 µM. Besides, the IC50 against TDP2 [2] was 218 ± 7 µM. Further, the remaining activity at 500 µM at TDP2 [2] (at 500 µM compound) is roughly 14%. Further, the CC50 at 72 h in “in vitro” was 50 ± 13 µM.

As for `COC(=O)CCC(C)C1CCC2C3CCC4CC(O)(CSc5nc6ccccc6s5)CCC4(C)C3CC(O)C12C` (stereo not shown) [4e], the melting point was 74.5 °C (dec.). The midpoint of inhibition on TDP1 [1], the IC50, lay at 0.63 ± 0.03 µM. The remaining activity at 500 µM at TDP2 [2] (at 500 µM compound) was roughly 49%. For the same compound, the “combined cytotoxic effect / cell survival under drug combinations” value in the series with HeLa cells [5] was “most noticeable combined cytotoxic effect with both topotecan and etoposide”. The compound further came in with a CC50 in the series on HeLa cells [6] greater than 100 µM. In the series “in vitro”, this compound showed a CC50 at 72 h greater than 75 µM.

In the case of `COC(=O)CCC(C)C1CCC2C3CCC4CC(O)(CSc5nc6ccccc6o5)CCC4(C)C3CC(O)C12C` (stereo not shown) [4f], the melting point was 75 °C (dec.). For the same compound, inhibition against TDP1 [1] was half-maximal at 1.8 ± 0.5 µM (IC50). The remaining activity at 500 µM on TDP2 [2] (at 500 µM compound) was no less than 100%.

For the compound `COc1cc([C@@H]2c3cc4c(cc3[C@@H](O[C@@H]3O[C@@H]5CO[C@@H](C)O[C@H]5[C@H](O)[C@H]3O)[C@H]3COC(=O)[C@H]23)OCO4)cc(OC)c1O` [Etoposide], in series [7], the CC50 at 72 h stood at 6.2 ± 0.6 µM. Also, the living cells with HeLa cells [8] (etoposide alone at 5 µM) is on record as greater than 70%.

Turning to `CC[C@@]1(O)C(=O)OCc2c1cc1n(c2=O)Cc2cc3c(CN(C)C)c(O)ccc3nc2-1` [Topotecan], the CC50 at 72 h in series [7] was found to be 0.9 ± 0.1 µM. The same compound displayed a living cells with HeLa cells [8] (topotecan alone at 0.5 µM) greater than 70%.
